Laboratory results published in patent US20240067693A1, “POLYPEPTIDES AND USES THEREOF” (MEDIMMUNE LIMITED, priority 2020, published 2024).
Numbered stars: 1 amine (or outer) side, 2 acyl side, 3 side chain; on linkers, the order of the positions; unused ones are H or OH. Bridge positions count the residues as written; N and C are the ends. Square brackets hold non-standard residues; d marks the D form. Side chains are listed from the residue outwards. Peptide text beside a SMILES is read from it. * marks the point of attachment. C18 diacid = O=C(O)CCCCCCCCCCCCCCCCC(=O)*; γGlu = O=C(O)[C@H](CCC(=O)[*:2])N[*:1]; αMeF = C[C@](N)(Cc1ccccc1)C(=O)O; Aib = CC(C)(N)C(=O)O

Tests used:
[1] = biological target: T1, human amylin receptor (calcitonin receptor co-expressed with receptor activity modifying protein, RAMP3) (hAMYR3) (Homo sapiens, UniProt O60896+P30988); assay: cAMP production in 1321N1 cells with stable recombinant expression of human amylin receptor (hAMYR3); assay type: cell-based; details: for Ratio (selectivity hAMYR vs hCTR, ratio of EC50 values at the two receptors): EC50 hCTR / EC50 hAMYR3; for EC50: cAMP, 1321N1 cells, assay buffer with 0.1% BSA, read-out: EC50 (pM) hAMYR3
T1 construct: expressed in transfected cells
T1 sequence (P30988 25-474): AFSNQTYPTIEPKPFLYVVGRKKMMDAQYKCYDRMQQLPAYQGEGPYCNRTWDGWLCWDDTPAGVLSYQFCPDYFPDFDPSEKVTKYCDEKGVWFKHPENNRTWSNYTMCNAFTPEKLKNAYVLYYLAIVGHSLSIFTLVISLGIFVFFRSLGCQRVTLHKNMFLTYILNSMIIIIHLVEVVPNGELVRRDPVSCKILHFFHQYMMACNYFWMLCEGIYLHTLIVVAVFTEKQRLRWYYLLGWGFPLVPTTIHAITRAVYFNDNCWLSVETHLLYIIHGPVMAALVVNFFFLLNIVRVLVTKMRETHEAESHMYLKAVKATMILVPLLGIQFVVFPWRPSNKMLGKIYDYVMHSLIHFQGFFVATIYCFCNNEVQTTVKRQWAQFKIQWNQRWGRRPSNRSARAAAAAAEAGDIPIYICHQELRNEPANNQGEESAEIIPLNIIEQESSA
T1 sequence (O60896 24-148 partner): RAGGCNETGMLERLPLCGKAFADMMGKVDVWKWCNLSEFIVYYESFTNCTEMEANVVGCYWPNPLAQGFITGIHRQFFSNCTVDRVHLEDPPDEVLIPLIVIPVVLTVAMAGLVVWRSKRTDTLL
In short: (§1)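 Receptor-expressing cells (human receptors in 1321N1, rat receptors in HEK) incubated 30 min at room temperature with peptide in HBSS/HEPES pH 7.4, 0.1% BSA, 0.5 mM IBMX. cAMP read by HTRF; EC50 from 4-parameter fit as % of maximal amylin or calcitonin response.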

[2] = Thioflavin T fibrillation assay; assay type: physicochemical; details: ThT fibrillation assay; peptide 1 mg/mL in 25 mM sodium acetate buffer pH 4.0; 6 days at 37 °C with shaking; >144 h = no increase
In short: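 Peptides at 1 mg/mL in 25 mM sodium acetate pH 4.0 with ThT (from 0.25 mM stock), incubated 6 days at 37 °C with intermittent orbital shaking at 500–750 rpm. Fluorescence (ex 444/em 480 nm) read every 30 min; value is average time to a rise in baseline-corrected signal.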

[3] = biological target: T2, human calcitonin receptor (hCTR) (Homo sapiens, UniProt P30988); assay: cAMP production in 1321N1 cells with stable recombinant expression of human calcitonin receptor (hCTR); assay type: cell-based; details: cAMP, 1321N1 cells, assay buffer with 0.1% BSA; read-out: EC50 (pM) hCTR
T2 construct: expressed in transfected cells
T2 sequence (P30988 25-474): T1 sequence (P30988 25-474)
In short: as §1

[4] = Pharmacokinetic determination via IV and SC administration in Sprague Dawley rats; details: male, rat, plasma, 20 nmol/kg
in vivo = details: male, Sprague-Dawley, rat, 20 nmol/kg

Row | Structure (SMILES) | Ratio (selectivity hAMYR vs hCTR, ratio of EC50 values at the two receptors) [1] | EC50 [1] | Time taken to detect increase in fluorescence intensity [2] | EC50 [3] | half-life ([4]; iv) | half-life ([4]; sc) | half-life (in vivo; iv) | half-life (in vivo; sc)
1 | CC[C@H](C)[C@H](NC(=O)[C@@H]1CCCN1C(=O)CNC(=O)[C@](C)(Cc1ccccc1)NC(=O)[C@H](CC(N)=O)NC(=O)[C@H](CC(N)=O)NC(=O)[C@H](CO)NC(=O)[C@H](CO)NC(=O)[C@H](Cc1c[nH]cn1)NC(=O)[C@H](CCCNC(=N)N)NC(=O)[C@H](CC(C)C)NC(=O)[C@H](Cc1ccccc1)NC(=O)[C@H](CC(N)=O)NC(=O)[C@H](C)NC(=O)[C@H](CC(C)C)NC(=O)[C@H](CCCNC(=N)N)NC(=O)[C@H](CCC(N)=O)NC(=O)[C@@H](NC(=O)[C@H](C)NC(=O)[C@@H]1CSSC[C@H](NC(=O)[C@@H](N)CCCCNC(=O)CC[C@H](NC(=O)CCCCCCCCCCCCCCCCC(=O)O)C(=O)O)C(=O)N[C@@H](CC(N)=O)C(=O)N[C@@H]([C@@H](C)O)C(=O)N[C@@H](C)C(=O)N[C@@H]([C@@H](C)O)C(=O)N1)[C@@H](C)O)C(=O)N[C@@H](CC(C)C)C(=O)N1CCC[C@H]1C(=O)N1CCC[C@H]1C(=O)N[C@H](C(=O)N[C@@H](CC(N)=O)C(=O)N[C@H](C(=O)NCC(=O)N[C@@H](CO)C(=O)N[C@@H](CC(N)=O)C(=O)N[C@H](C(=O)N[C@@H](Cc1ccc(O)cc1)C(N)=O)[C@@H](C)O)C(C)C)[C@@H](C)O [Peptide 19, K(γE-C18diacid)[CNTATC]ATQRLANFLRHSSNN(αMePhe)GPILPPTNVGSNTY-amide] (H-K([γGlu-C18 diacid])CNTATCATQRLANFLRHSSNN[αMeF]GPILPPTNVGSNTY-NH2; disulfide 2-7; N-terminus assumed) | 15 | 278 pM | >144 h | 4040 pM | 6.6 h | 9.3 h | – | –
2 | CC[C@H](C)[C@H](NC(=O)[C@@H]1CCCN1C(=O)CNC(=O)[C@H](Cc1ccccc1)NC(=O)[C@H](CC(N)=O)NC(=O)[C@H](CC(N)=O)NC(=O)[C@H](CO)NC(=O)[C@H](CO)NC(=O)[C@H](Cc1c[nH]cn1)NC(=O)C(C)(C)NC(=O)[C@H](CC(C)C)NC(=O)[C@H](Cc1ccccc1)NC(=O)[C@H](CC(N)=O)NC(=O)[C@H](C)NC(=O)[C@H](CC(C)C)NC(=O)[C@H](CCCNC(=N)N)NC(=O)[C@H](CCC(N)=O)NC(=O)[C@@H](NC(=O)[C@H](C)NC(=O)[C@@H]1CSSC[C@H](NC(=O)[C@@H](N)CCCCNC(=O)CC[C@H](NC(=O)CCCCCCCCCCCCCCCCC(=O)O)C(=O)O)C(=O)N[C@@H](CC(N)=O)C(=O)N[C@@H]([C@@H](C)O)C(=O)N[C@@H](C)C(=O)N[C@@H]([C@@H](C)O)C(=O)N1)[C@@H](C)O)C(=O)N[C@@H](CC(C)C)C(=O)N1CCC[C@H]1C(=O)N1CCC[C@H]1C(=O)N[C@H](C(=O)N[C@@H](CCCNC(=N)N)C(=O)N[C@H](C(=O)NCC(=O)N[C@@H](CO)C(=O)N[C@@H](CC(N)=O)C(=O)N[C@H](C(=O)N[C@@H](Cc1ccc(O)cc1)C(N)=O)[C@@H](C)O)C(C)C)[C@@H](C)O [Peptide 155] (H-K([γGlu-C18 diacid])CNTATCATQRLANFL[Aib]HSSNNFGPILPPTRVGSNTY-NH2; disulfide 2-7; N-terminus assumed) | 11.9 | 329 pM | – | 3930 pM | 7.7 h | 8.9 h | – | –
3 | CC[C@H](C)[C@H](NC(=O)[C@@H]1CCCN1C(=O)CNC(=O)[C@H](Cc1ccccc1)NC(=O)[C@H](CC(N)=O)NC(=O)C(C)(C)NC(=O)[C@H](CO)NC(=O)[C@H](CO)NC(=O)[C@H](Cc1c[nH]cn1)NC(=O)[C@H](CCCNC(=N)N)NC(=O)[C@H](CC(C)C)NC(=O)[C@H](Cc1ccccc1)NC(=O)[C@H](CC(N)=O)NC(=O)[C@H](C)NC(=O)[C@H](CC(C)C)NC(=O)[C@H](CCCNC(=N)N)NC(=O)[C@H](CCC(N)=O)NC(=O)[C@@H](NC(=O)[C@H](C)NC(=O)[C@@H]1CSSC[C@H](NC(=O)[C@H](CCCCN)NC(=O)[C@@H](N)CCCCNC(=O)CC[C@H](NC(=O)CCCCCCCCCCCCCCCCC(=O)O)C(=O)O)C(=O)N[C@@H](CC(N)=O)C(=O)N[C@@H]([C@@H](C)O)C(=O)N[C@@H](C)C(=O)N[C@@H]([C@@H](C)O)C(=O)N1)[C@@H](C)O)C(=O)N[C@@H](CC(C)C)C(=O)N1CCC[C@H]1C(=O)N1CCC[C@H]1C(=O)N[C@H](C(=O)N[C@@H](CC(N)=O)C(=O)N[C@H](C(=O)NCC(=O)N[C@@H](CO)C(=O)N[C@@H](CC(N)=O)C(=O)N[C@H](C(=O)N[C@@H](Cc1ccc(O)cc1)C(N)=O)[C@@H](C)O)C(C)C)[C@@H](C)O [Peptide 65, K(γE-C18diacid)K[CNTATC]ATQRLANFLRHSS(Aib)NFGPILPPTNVGSNTY-amide] (H-K([γGlu-C18 diacid])KCNTATCATQRLANFLRHSS[Aib]NFGPILPPTNVGSNTY-NH2; disulfide 3-8) | 31 | 207 pM | – | 6400 pM | 6 h | 9.3 h | – | –
4 | CC[C@H](C)[C@H](NC(=O)[C@@H]1CCCN1C(=O)CNC(=O)[C@](C)(Cc1ccccc1)NC(=O)[C@H](CC(N)=O)NC(=O)[C@H](CC(N)=O)NC(=O)[C@H](CO)NC(=O)[C@H](CO)NC(=O)[C@H](Cc1c[nH]cn1)NC(=O)[C@@H](NC(=O)[C@H](CC(C)C)NC(=O)[C@H](Cc1ccccc1)NC(=O)[C@H](CC(N)=O)NC(=O)[C@H](C)NC(=O)[C@H](CC(C)C)NC(=O)[C@H](CCCNC(=N)N)NC(=O)[C@H](CCC(N)=O)NC(=O)[C@@H](NC(=O)[C@H](C)NC(=O)[C@@H]1CSSC[C@H](NC(=O)[C@@H](N)CCCCNC(=O)CC[C@H](NC(=O)CCCCCCCCCCCCCCCCC(=O)O)C(=O)O)C(=O)N[C@@H](CC(N)=O)C(=O)N[C@@H]([C@@H](C)O)C(=O)N[C@@H](C)C(=O)N[C@@H]([C@@H](C)O)C(=O)N1)[C@@H](C)O)C(C)C)C(=O)N[C@@H](CC(C)C)C(=O)N1CCC[C@H]1C(=O)N1CCC[C@H]1C(=O)N[C@H](C(=O)N[C@@H](CCCNC(=N)N)C(=O)N[C@H](C(=O)NCC(=O)N[C@@H](CO)C(=O)N[C@@H](CC(N)=O)C(=O)N[C@H](C(=O)N[C@@H](Cc1ccc(O)cc1)C(N)=O)[C@@H](C)O)C(C)C)[C@@H](C)O [Peptide 25, K(γE-C18diacid)[CNTATC]ATQRLANFLVHSSNN(αMePhe)GPILPPTRVGSNTY-amide] (H-K([γGlu-C18 diacid])CNTATCATQRLANFLVHSSNN[αMeF]GPILPPTRVGSNTY-NH2; disulfide 2-7) | 12 | 105 pM | >144 h | 1250 pM | – | – | 6.9 h | 8 h
5 | CC[C@H](C)[C@H](NC(=O)[C@@H]1CCCN1C(=O)CNC(=O)[C@H](Cc1ccccc1)NC(=O)[C@H](CC(N)=O)NC(=O)C(C)(C)NC(=O)[C@H](CO)NC(=O)[C@H](CO)NC(=O)[C@H](Cc1c[nH]cn1)NC(=O)C(C)(C)NC(=O)[C@H](CC(C)C)NC(=O)[C@H](Cc1ccccc1)NC(=O)[C@H](CC(N)=O)NC(=O)[C@H](C)NC(=O)[C@H](CC(C)C)NC(=O)[C@H](CCCNC(=N)N)NC(=O)[C@H](CCC(N)=O)NC(=O)[C@@H](NC(=O)[C@H](C)NC(=O)[C@@H]1CSSC[C@H](NC(=O)[C@H](CCCCN)NC(=O)[C@@H](N)CCCCNC(=O)CC[C@H](NC(=O)CCCCCCCCCCCCCCCCC(=O)O)C(=O)O)C(=O)N[C@@H](CC(N)=O)C(=O)N[C@@H]([C@@H](C)O)C(=O)N[C@@H](C)C(=O)N[C@@H]([C@@H](C)O)C(=O)N1)[C@@H](C)O)C(=O)N[C@@H](CC(C)C)C(=O)N1CCC[C@H]1C(=O)N1CCC[C@H]1C(=O)N[C@H](C(=O)N[C@@H](CC(N)=O)C(=O)N[C@H](C(=O)NCC(=O)N[C@@H](CO)C(=O)N[C@@H](CC(N)=O)C(=O)N[C@H](C(=O)N[C@@H](Cc1ccc(O)cc1)C(N)=O)[C@@H](C)O)C(C)C)[C@@H](C)O [Peptide 36, K(γE-C18diacid)K[CNTATC]ATQRLANFL(Aib)HSS(Aib)NFGPILPPTNVGSNTY-amide] (H-K([γGlu-C18 diacid])KCNTATCATQRLANFL[Aib]HSS[Aib]NFGPILPPTNVGSNTY-NH2; disulfide 3-8; N-terminus assumed) | 19 | 331 pM | – | 6390 pM | 7.2 h | 11.6 h | – | –
